# Data from ChEMBL document CHEMBL3885881, “DrugMatrix”.
# Species: Rattus norvegicus
# Assay: DrugMatrix - Regimen: Daily Repeat
# Format: toxicity, organism-based, Sprague-Dawley
# Parameters: regimen Daily Repeat, gender Male, age 6-8 weeks
# Details: in vivo, po, route oral GAVAGE, vehicle .5 % CMC; for ABSOLUTE BASOPHIL / ABSOLUTE EOSINOPHIL / ABSOLUTE LYMPHOCYTE / ABSOLUTE MONOCYTE / ABSOLUTE SEGMENTED NEUTROPHIL / BASOPHIL / EOSINOPHIL / ERYTHROCYTE COUNT / HEMATOCRIT / HEMOGLOBIN / LEUKOCYTE COUNT / LYMPHOCYTE / MEAN CORPUSCULAR HEMOGLOBIN / MEAN CORPUSCULAR HEMOGLOBIN CONCENTRATION / MEAN CORPUSCULAR VOLUME / MONOCYTE / NEUTROPHIL / NUCLEATED RED BLOOD CELLS / PLATELET COUNT: tissue Blood; for ALANINE AMINOTRANSFERASE / ALBUMIN / ALKALINE PHOSPHATASE / ASPARTATE AMINOTRANSFERASE / BLOOD UREA NITROGEN / CARBON DIOXIDE / CHLORIDE / CHOLESTEROL / CREATINE PHOSPHOKINASE / CREATININE / GLUCOSE / LACTATE DEHYDROGENASE / LIPASE / PHOSPHORUS / POTASSIUM / SODIUM / TOTAL BILIRUBIN / TOTAL PROTEIN / URIC ACID: tissue Plasma
# [1] = 150 mg/kg, 120 h, dose level Low, time 5 day
# [2] = 1500 mg/kg, 72 h, dose level High, time 3 day
# [3] = 1500 mg/kg, 120 h, dose level High, time 5 day
smiles,measurement,setting,value
C[C@@H](O)[C@H]1C(=O)N2C(C(=O)O)=C(S[C@@H]3CN[C@H](C(=O)N(C)C)C3)[C@H](C)[C@H]12 [MEROPENEM],ABSOLUTE BASOPHIL,[1],0 CELLS/uL
same,ABSOLUTE EOSINOPHIL,[1],351 CELLS/uL
same,ABSOLUTE LYMPHOCYTE,[1],13228.33 CELLS/uL
same,ABSOLUTE MONOCYTE,[1],0 CELLS/uL
same,ABSOLUTE SEGMENTED NEUTROPHIL,[1],1520.67 CELLS/uL
same,BASOPHIL,[1],0%
same,EOSINOPHIL,[1],2.33%
same,ERYTHROCYTE COUNT,[1],5.62 x10E6/uL
same,HEMATOCRIT,[1],34.4%
same,HEMOGLOBIN,[1],13.1 G/DL
same,LEUKOCYTE COUNT,[1],15.1 x10E3/uL
same,LYMPHOCYTE,[1],88%
same,MEAN CORPUSCULAR HEMOGLOBIN,[1],23.37 pg
same,MEAN CORPUSCULAR HEMOGLOBIN CONCENTRATION,[1],38.1 G/DL
same,MEAN CORPUSCULAR VOLUME,[1],61.33 fL
same,MONOCYTE,[1],0%
same,NEUTROPHIL,[1],9.67%
same,NUCLEATED RED BLOOD CELLS,[1],0 /100WBC
same,PLATELET COUNT,[1],1149.33 x10E3/uL
same,ALANINE AMINOTRANSFERASE,[1],61.33 u/L
same,ALBUMIN,[1],4.13 G/DL
same,ALKALINE PHOSPHATASE,[1],367 u/L
same,ASPARTATE AMINOTRANSFERASE,[1],86 u/L
same,BLOOD UREA NITROGEN,[1],19 mg/dL
same,CARBON DIOXIDE,[1],25.33 mmol/L
same,CHLORIDE,[1],101.67 MEQ/L
same,CHOLESTEROL,[1],70 mg/dL
same,CREATINE PHOSPHOKINASE,[1],254 u/L
same,CREATININE,[1],0.23 mg/dL
same,GLUCOSE,[1],161 mg/dL
same,LACTATE DEHYDROGENASE,[1],187.67 u/L
same,LIPASE,[1],9 u/L
same,PHOSPHORUS,[1],12.3 mg/dL
same,POTASSIUM,[1],6.26 MEQ/L
same,SODIUM,[1],142.3 MEQ/L
same,TOTAL BILIRUBIN,[1],0.17 mg/dL
same,TOTAL PROTEIN,[1],5.93 G/DL
same,URIC ACID,[1],1.6 mg/dL
same,ABSOLUTE BASOPHIL,[2],0 CELLS/uL
same,ABSOLUTE EOSINOPHIL,[2],214 CELLS/uL
same,ABSOLUTE LYMPHOCYTE,[2],12444.67 CELLS/uL
same,ABSOLUTE MONOCYTE,[2],0 CELLS/uL
same,ABSOLUTE SEGMENTED NEUTROPHIL,[2],841.33 CELLS/uL
same,BASOPHIL,[2],0%
same,EOSINOPHIL,[2],1.33%
same,ERYTHROCYTE COUNT,[2],5.72 x10E6/uL
same,HEMATOCRIT,[2],35.5%
same,HEMOGLOBIN,[2],13.53 G/DL
same,LEUKOCYTE COUNT,[2],13.5 x10E3/uL
same,LYMPHOCYTE,[2],92.33%
same,MEAN CORPUSCULAR HEMOGLOBIN,[2],23.8 pg
same,MEAN CORPUSCULAR HEMOGLOBIN CONCENTRATION,[2],38.2 G/DL
same,MEAN CORPUSCULAR VOLUME,[2],62.23 fL
same,MONOCYTE,[2],0%
same,NEUTROPHIL,[2],6.33%
same,NUCLEATED RED BLOOD CELLS,[2],0 /100WBC
same,PLATELET COUNT,[2],1189 x10E3/uL
same,ALANINE AMINOTRANSFERASE,[2],52.67 u/L
same,ALBUMIN,[2],4.33 G/DL
same,ALKALINE PHOSPHATASE,[2],317 u/L
same,ASPARTATE AMINOTRANSFERASE,[2],76 u/L
same,BLOOD UREA NITROGEN,[2],13.33 mg/dL
same,CARBON DIOXIDE,[2],29.33 mmol/L
same,CHLORIDE,[2],99.67 MEQ/L
same,CHOLESTEROL,[2],85.33 mg/dL
same,CREATINE PHOSPHOKINASE,[2],176.67 u/L
same,CREATININE,[2],0.17 mg/dL
same,GLUCOSE,[2],160.67 mg/dL
same,LACTATE DEHYDROGENASE,[2],71 u/L
same,LIPASE,[2],9 u/L
same,PHOSPHORUS,[2],11.83 mg/dL
same,POTASSIUM,[2],6.87 MEQ/L
same,SODIUM,[2],144.6 MEQ/L
same,TOTAL BILIRUBIN,[2],0.17 mg/dL
same,TOTAL PROTEIN,[2],5.9 G/DL
same,URIC ACID,[2],1.9 mg/dL
same,ABSOLUTE BASOPHIL,[3],0 CELLS/uL
same,ABSOLUTE EOSINOPHIL,[3],276.67 CELLS/uL
same,ABSOLUTE LYMPHOCYTE,[3],12982 CELLS/uL
same,ABSOLUTE MONOCYTE,[3],0 CELLS/uL
same,ABSOLUTE SEGMENTED NEUTROPHIL,[3],1474.67 CELLS/uL
same,BASOPHIL,[3],0%
same,EOSINOPHIL,[3],2%
same,ERYTHROCYTE COUNT,[3],5.69 x10E6/uL
same,HEMATOCRIT,[3],36.37%
same,HEMOGLOBIN,[3],13.67 G/DL
same,LEUKOCYTE COUNT,[3],14.73 x10E3/uL
same,LYMPHOCYTE,[3],88%
same,MEAN CORPUSCULAR HEMOGLOBIN,[3],24.07 pg
same,MEAN CORPUSCULAR HEMOGLOBIN CONCENTRATION,[3],37.6 G/DL
same,MEAN CORPUSCULAR VOLUME,[3],63.97 fL
same,MONOCYTE,[3],0%
same,NEUTROPHIL,[3],10%
same,NUCLEATED RED BLOOD CELLS,[3],0 /100WBC
same,PLATELET COUNT,[3],1178 x10E3/uL
same,ALANINE AMINOTRANSFERASE,[3],52.33 u/L
same,ALBUMIN,[3],4.47 G/DL
same,ALKALINE PHOSPHATASE,[3],443.33 u/L
same,ASPARTATE AMINOTRANSFERASE,[3],75.67 u/L
same,BLOOD UREA NITROGEN,[3],16.67 mg/dL
same,CARBON DIOXIDE,[3],28.33 mmol/L
same,CHLORIDE,[3],101.33 MEQ/L
same,CHOLESTEROL,[3],60.67 mg/dL
same,CREATINE PHOSPHOKINASE,[3],199 u/L
same,CREATININE,[3],0.23 mg/dL
same,GLUCOSE,[3],155 mg/dL
same,LACTATE DEHYDROGENASE,[3],127.33 u/L
same,LIPASE,[3],9 u/L
same,PHOSPHORUS,[3],12.27 mg/dL
same,POTASSIUM,[3],6.59 MEQ/L
same,SODIUM,[3],147.07 MEQ/L
same,TOTAL BILIRUBIN,[3],0.13 mg/dL
same,TOTAL PROTEIN,[3],6.3 G/DL
same,URIC ACID,[3],1.6 mg/dL
